# Data taken from US4192871A, “Chemical compounds” (Glaxo Laboratories Limited, priority 1976, dated 1980).
# Tests used:
# [1] = dissolution of the 11β-aminoester salts in aqueous acid (Table 5 and Examples 101, 225-229); type: physicochemical
# Description: (§1) A solution of the above free base (492 mg; 1 mmole) in ethanol (10 ml) was treated with a solution (10 ml) of M/10 citric acid in ethanol water (9:1) and the mixture evaporated in vacuo at low temperature to afford a froth.
# (§2) Table 5 summarises the properties and preparation of salts of the invention by one of the following methods:
# (§3) A. The 11β-aminoester (1 part) was added to a solution of the acid (1 molar part) in water and the mixture stirred or shaken until a clear solution was obtained. The solution was made up with water to the weight indicated, filtered through a membrane and the pH determined.
# (§4) B. The 11β-aminoester (1 part) was added to a solution of the acid (1 molar part) in water and the mixture stirred or shaken. As free base remained undissolved, further acid was added and the mixture agitated again. The solution was made up with water to the weight indicated and any material which then remained undissolved was collected in a weighed funnel and the weight of free base dissolved calculated and the pH of the solution measured.
# (§5) C. A mixture of the 11β-aminoester (1 part), a 0.1 M solution of the acid (1 molar part) and ethanol was evaporated in vacuo and dried to constant weight. The residue was dissolved in a little water and any material which then remained undissolved collected in a weighed funnel and the weight of free base dissolved calculated. The solution was made up with water to the weight indicated and its pH measured.
# (§6) D. The 11β-aminoester (1 part) was added to a solution of the acid (1 molar part) in water and the mixture stirred or shaken. The solution was made up with water to the weight indicated. The material remaining undissolved was collected in a weighed funnel and the weight of free base dissolved calculated and the pH of the solution measured.
# (§7) E. As in method C except that further acid was added to the residue after addition of the small amount of water.
# The solid citric acid used was as its monohydrate.
# (§8) Sodium iodide (0.250 g) and diethylamine (0.5 ml) were added to a solution of 11β-chloroacetoxy-2β-ethoxy-3α-hydroxy-D-homo-5α-pregnan-20-one (0.250 g) in acetone (10 ml) and the mixture was left at room temperature for 3 days during which time a white solid precipated. Water was added and the yellow solution was concentrated in vacuo whereupon crystallisation occurred. The needles were filtered off and washed well with acetone/water yielding the title compound (0.201 g), m.p. 160°-73°, [α]D +60.8°. The above base (0.101 g) was stirred with citric acid monohydrate (0.042 g) in water (9.5 ml) for 21 hours. The solution was made up to 10.1 g by weight. The solid remaining out of solution was filtered off, dried and weighed. The solution was passed through a millipore filter giving an aqueous solution of the title compound, concentration 9.75 mg/ml, pH 3.66.
# The above base (0.096 g) was stirred in a solution of citric acid monohydrate (0.038 g) in water (8.5 ml) for 20 hours. A large proportion of the steroid remained out of solution. More citric acid (0.038 g) was added and the mixture stirred for a further 6 hours. The solution was made up to 9.6 g by weight and the solid remaining out of solution was filtered off, dried and weighed. The solution was passed through a millipore filter giving an aqueous solution of the title compound, concentration 9.5 mg/ml, pH 2.85.
# To a solution of citric acid monohydrate (52.5 mg) in water (2 ml) was added the above free base (115 mg). More water (8 ml) was added and the mixture was stirred for 72 hrs. A small amount of steroid remained out of solution and more citric acid (52.5 mg) was added. Within 5 mins. a clear solution was obtained which was made up to 11.5 g with water and filtered through a millipore filter yielding an aqueous solution of the title citrate, concentration 10 mg/ml, pH 3.0.
# The above free base (112 mg) was added to a solution of citric acid monohydrate (52.5 mg) in water (2 ml). More water (8 ml) was added and the mixture was swirled from time to time. […]
# pH of the salt solutions = type: physicochemical
# Description: as §1, §2, §3, §4, §5, §6, §7
# 11β-N,N-Diethylaminoacetoxy-2β-ethoxy-3α-hydroxy-5α-pregnan-20-one (1.45 g) was agitated with citric acid monohydrate (621 mg) in 0.9% w/v sodium chloride solution (steriflex^(R)) (130 ml.) at 20° for 16.5 hours. The resulting solution was stirred at 21° and N/5 sodium hydroxide solution in steriflex^(R) (10.5 ml) was added dropwise during 30 minutes, raising the pH from 3.63 to 4.52. The solution was diluted to 162.5 g so that the concentration of steroid was 9 mg/ml. The solution of the citrate was filtered through a membrane and finally filtered into 8 sterile ampoules.
# 11β-(N-Butyl-N-ethylaminoacetoxy)-3α-hydroxy-5α-pregnan-20-one (1.80 g) was agitated with citric acid monohydrate (793 mg) in 0.9% w/v sodium chloride solution (steriflex^(R)) (160 ml) at 20° for 19.5 hours. The resulting solution was slightly cloudy. This solution was stirred at 21° and N/5 sodium hydroxide solution in steriflex^(R) (5.8 ml) was added dropwise during 15 minutes, raising the pH from 3.62 to 4.00. The solution was diluted to 201.2 g so that the concentration of steroid was 9 mg/ml. The cloudiness was removed by filtration through a membrane and the clear solution of the citrate was filtered into 8 sterile ampoules.
# as §8, with “3.66. […]” for “3.66.”
# [2] = method C: ethanol evaporated, residue in water, undissolved material weighed, WT. of solution Ex. 118: 10, 120: 10.4, 148: 9.54, 152: 5.6, 154: 9.1, 155: 8.77, 156: 9.06, 157: 9.5, 158: 9.38, 159: 9.17, 179: 9.65, 180: 11.7, 182: 4.9, 202: 12.05, 213: 12, 214: 11.5, 215: 11.1, 216: 11.6, 217: 12.1 g
# [3] = aqueous solution of the salt, Table 5
# [4] = method A: clear solution, 1 molar part acid, made up with water to WT. of solution 10 g, except Ex. 121 and 150: 12, 123: 12.3, 124: 7.5, 129: 10.3, 135 and 139: 8.95, 164: 10.35, 170: 10.4, 181: 10.04, 187: 9.5, 210: 10.2, 221: 15 g
# [5] = method B: further acid added, undissolved material weighed, WT. of solution 10 g, except Ex. 130 and 141: 9.2, 142: 9.23, 143, 144, 189 and 199: 9.8, 149: 10.6, 153: 7.9, 162 and 188: 9.5, 163: 68, 166: 10.4, 168: 10.7, 169: 10.9, 183: 8.05, 184 and 201: 9.83, 185: 7.1, 186: 9.3, 192: 10.07, 193: 6.4, 195: 6.8, 196: 7, 197: 7.2, 200: 10.1, 206: 15 g
# [6] = method D: 1 molar part acid, undissolved material weighed, WT. of solution 10 g, except Ex. 136: 8.95, 140: 9.52, 165 and 167: 10.1, 190 and 198: 9.8, 191: 8.9, 194: 6.6, 204: 10.09, 219: 10.6 g
# [7] = method E: as C with further acid, WT. of solution Ex. 160: 6.12, 161: 7.8, 203: 12.7, 212: 12.125, 220: 10 g
SMILES,pH (pH of the salt solutions; [3]),"Dissolved aminoester [1, 5] [mg]",also measured
CCCCN(C)C(C)C(=O)O[C@H]1C[C@]2(C)[C@@H](C(C)=O)CC[C@H]2[C@@H]2CC[C@H]3C[C@H](O)CC[C@]3(C)[C@H]21 (some centres unmarked) [Example 182],3.43,,"Dissolved aminoester [1, 2]: 49 mg"
CCCCN(C)CC(=O)OC1CC2(C)C(C(C)=O)CCC2C2CCC3CC(O)C(OC(C)=O)CC3(C)C12 (centres unmarked) [Example 170],3.7,,"Dissolved aminoester [1, 4]: 104 mg"
CC(=O)[C@H]1CC[C@H]2[C@@H]3CC[C@H]4C[C@H](O)CC[C@]4(C)[C@H]3[C@@H](OC(=O)CN(C)C(C)C)C[C@]12C [Example 183],2.69,57.5,
CC(=O)[C@H]1CC[C@H]2[C@@H]3CC[C@H]4C[C@H](O)CC[C@]4(C)[C@H]3[C@@H](OC(=O)C(C)N3CCC(C)CC3)C[C@]12C (some centres unmarked) [Example 179],,,"Dissolved aminoester [1, 2]: 96.5 mg; pH (pH of the salt solutions; aqueous solution, pH adjusted with sodium hydroxide solution): 3.66"
CCN(CC)CC(=O)OC1CC2(C)C(C(C)=O)CCC2C2CCC3CC(O)C(OC(C)C)CC3(C)C12 (centres unmarked) [Example 167],3.65,,"Dissolved aminoester [1, 6]: 93 mg"
CCN(CC)CC(=O)OC1CC2(C)C(C(=O)COC)CCC2C2CCC3CC(O)CCC3(C)C12 (centres unmarked) [Example 172],3.2,,"Dissolved aminoester [1, 4]: 100 mg"
CC(=O)[C@H]1CC[C@H]2[C@@H]3CC[C@H]4C[C@H](O)[C@@H](Cl)C[C@]4(C)[C@H]3[C@@H](OC(=O)CN3CCC(C)CC3)C[C@]12C [Example 203],2.85,,"Dissolved aminoester [1, 7]: 127 mg"
CCCCCCN(C)CC(=O)O[C@H]1C[C@]2(C)[C@@H](C(C)=O)CC[C@H]2[C@@H]2CC[C@H]3C[C@H](O)CC[C@]3(C)[C@H]21 [Example 189],2.98,93,
CC(=O)[C@H]1CC[C@H]2[C@@H]3CC[C@H]4C[C@](C)(O)CC[C@]4(C)[C@H]3[C@@H](OC(=O)CN3CCC(C)CC3)C[C@]12C [Example 134],3.2,,"Dissolved aminoester [1, 6]: 84 mg"
CC(=O)[C@H]1CC[C@H]2[C@@H]3CC[C@H]4C[C@H](O)CC[C@]4(C)[C@H]3[C@@H](OC(=O)CN(C)CC(C)(C)C)C[C@]12C [Example 188],2.58,31,
CCN(CC)CC(=O)OC1CC2(C)C(C(C)=O)CCC2C2CCC3CC(O)C(C)CC3(C)C12 (centres unmarked) [Example 176],3.7,,"Dissolved aminoester [1, 4]: 103 mg"
CCCCN(C)CC(=O)O[C@H]1C[C@]2(C)[C@@H](C#N)CC[C@H]2[C@@H]2CC[C@H]3C[C@H](O)CC[C@]3(C)[C@H]21 [Example 205],3.4,,"Dissolved aminoester [1, 6]: 97 mg"
CCCCN(CC)CC(=O)O[C@H]1C[C@]2(C)[C@@H](C(C)=O)CC[C@H]2[C@@H]2CC[C@H]3C[C@H](O)CC[C@]3(C)[C@H]21 [Example 220],3.6,,"Dissolved aminoester [1, 7]: 100 mg"
CCN(CC)CC(=O)OC1CC2(C)C(C(C)=O)CCC2C2CCC3CC(O)C(C)CC3(C)C12 (centres unmarked) [Example 173],2.82,78,
CC(=O)[C@H]1CC[C@H]2[C@@H]3CC[C@H]4C[C@H](O)CC[C@]4(C)[C@H]3[C@@H](OC(=O)CN3CCCCCC3)C[C@]12C [Example 159],3.55,,"Dissolved aminoester [1, 2]: 91.7 mg"
CC(=O)[C@H]1CC[C@H]2[C@@H]3CC[C@H]4C[C@H](O)CC[C@]4(C)[C@H]3[C@@H](OC(=O)CN(C)[C@@H](C)CC(C)C)C[C@]12C [Example 199],3.12,88,
CCCCOC1CC2(C)C(CCC3C4CCC(C(C)=O)C4(C)CC(OC(=O)CN4CCC(C)CC4)C32)CC1O (centres unmarked) [Example 169],2.8,80.5,
CCCO[C@H]1C[C@@]2(C)[C@@H](CC[C@@H]3[C@@H]2[C@@H](OC(=O)CN2CCC(C)CC2)C[C@]2(C)[C@@H](C(C)=O)CC[C@@H]32)C[C@@H]1O [Example 149],2.9,106,
"CCCCN(CC)CC(=O)O[C@H]1C[C@]2(C)[C@@H](C(C)=O)CC[C@H]2[C@@H]2CC[C@H]3C[C@H](O)CC[C@]3(C)[C@H]21.O=C(O)CC(O)(CC(=O)O)C(=O)O [Example 222, 11β-(N-Butyl-N-ethylaminoacetoxy)-3α-hydroxy-5α-pregnan-20-one, citrate salt]",,,"Dissolved aminoester ([1]; method A, 0.9% w/v saline in place of water, WT. of solution Ex. 122: 37.5 g, 222: 50 g): 500 mg; pH (pH of the salt solutions; solution in 0.9% w/v saline, pH adjusted with sodium hydroxide solution, citrate salt): 3.97; pH (pH of the salt solutions; solution in 0.9% w/v saline, pH adjusted with sodium hydroxide solution, listed as Example 224, citrate salt): 4.00; pH (pH of the salt solutions; solution of the salt in saline, before any adjustment): 3.62"
CCC(C)NCC(=O)O[C@H]1C[C@]2(C)[C@@H](C(C)=O)CC[C@H]2[C@@H]2CC[C@H]3C[C@H](O)CC[C@]3(C)[C@H]21 (some centres unmarked) [Example 139],3.76,,"Dissolved aminoester [1, 4]: 89.5 mg"
CCCCN(CC)CC(=O)OC1CC2(C)C(C(C)=O)CCC2C2CCC3CC(O)C(C)CC3(C)C12 (centres unmarked) [Example 174],2.90,100,
